Earlier results, collected in US20140356424A1, “COMPOSITION FOR TREATMENT OR REDUCTION OF SYMPTOMS RELATED TO PREMENSTRUAL SYNDROME (PMS), PREMENSTRUAL DISPHORIC DISORDER (PMDD), PREMENOPAUSE, MENOPAUSE OR FEMALE HORMONAL DISORDERS, IN A PHARMACEUTICAL COMPOSITION CONTAINING SAID FORM, AND PROCESS FOR PRODUCING SAID PHARMACEUTICAL FORM AND USE …” (EMS S.A., priority 2013, published 2014).

Legend:
[1] = system: women with a diagnosis of PMS; conditions: calcium carbonate 1.0 g/day, after three months
premenstrual symptoms = conditions: daily supplement of 200 mg of magnesium (as MgO)

Compound | complaints of headache, anxiety, agitation and irritability [1] | symptom of fatigue (questionnaire) ([1]; placebo 52.3%) [%] | symptom of changes in appetite (questionnaire) ([1]; placebo 75%) [%] | effect on severity of premenstrual symptoms (premenstrual symptoms)
O=C([O-])[O-].[Ca+2] [calcium carbonate] | significant changes were not observed | 36 | 52.7 | 
[O]=[Mg] [magnesium (as MgO), magnesium oxide] |  |  |  | reduced mild premenstrual symptoms
